Consider nine compounds from US5773412A, “Use of peptides for altering αV β3 -mediated binding” (priority 1995, dated 1998).

“Also recorded” adds a separate entry of the source. Where a SMILES comes first, the peptide text is derived from it. Bridges are numbered along the chain shown (N, C = ends). [ ]: non-standard residue; d: D form. Tic = O=C(O)[C@@H]1Cc2ccccc2CN1; Pen = CC(C)(S)[C@H](N)C(=O)O; Mpa = O=C(O)CCS

In data set [1] the test system is osteoclasts; αv β3 integrin receptor. Kind of data set: Series of assays of Example II (summary of potency and selectivity, FIG. 2). As to conditions: in words.
Data set [2] can be described thus: Parathyroid hormone-induced hypercalcemia in mice. The settings on record: parathyroidectomized Swiss-Webster mice, 4 hr peptide infusion, 0.2 mg PTH/kg i.v.; in words. Type of data set: in vivo. An excerpt: Parathyroid hormone (PTH) activates osteoclasts, which are involved in bone resorption. Associated with the increased osteoclast activity is an increase in serum calcium. The PTH-induced hypercalcemia assay measures the level of serum calcium, which is an indication of bone resorption in a subject (Fischer et al., Endocrinology 132:1411-1413 (1993), which is incorporated herein by reference).
Swiss-Webster mice, which had been parathyroidectomized two weeks prior to beginning the assay, were obtained from Taconic Lab Animals and Services (Germantown N.Y.). Femoral vein catheters (PE-50 fused with PE10 polyethylene tubing; Becton Dickinson; Parsippany, N.J.) were installed in the mice, flushed and locked with heparinized saline (1:10), sutured to adjacent muscle and internalized within the inguinal space of the incision before closing the incision with wound clips. […]
The experiment was initiated by feeding the mice a calcium-deficient diet overnight, then injecting the mice the following morning with a bolus of 0.2 mg PTH/kg (hPTH 1-34; Bachem; Torrance Calif.), intravenously. […] Various doses of a peptide or vehicle were infused into an animal for 4 hr, then ionized serum calcium again was measured. […] Serum calcium measurements were expressed as the difference between the value 30 min before the PTH pulse and 4 hr after peptide infusion was started. […]

The next data set addresses T1, αv β3 receptor (Homo sapiens, UniProt P05106+P06756).
T1 construct: The αv β3 receptor was purified from octylglucopyranoside-extracted human placenta; from tissue; host or cells: human placenta
Kind of data set: αvβ3 competitive ELISA. It is filed as binding. As to conditions: IC50 in αvβ3 ELISA / JY cells versus αvβ5 and α5β1 ELISAs; in words. As to the method:
Peptide binding to purified human αv β5 and αv β3, which are VnR's, and to α5 β1 which is a FnR, was determined using competitive ELISA assays as described below.
Peptide binding to purified αv β3 receptor was determined by using a competitive ELISA, in which αv β3 receptor was immobilized and the binding of solubilized VN, in the presence of various concentrations of peptide analogue, was detected using a monoclonal mouse IgG anti-VN antibody and a labelled anti-mouse IgG conjugate.
96 well microtiter plates were coated overnight at RT with 100 μl/well of αv β3 receptor (0.5 μg/ml in 1X TBS, 4 mM octylglucoside, 1 mM CaCl2). The wells were blocked with 200 μl/well of 1% BSA in 1X TBS, 1 mM CaCl2 for at least 30 min. The plates were washed 2× with 1X TBS, 1 mM CaCl2. 50 μl peptide in 1X TBS, 1 mM CaCl2, 0.05% TWEEN 20 (polyoxyethylenesorbitan monolaurate) was added in 10-fold serial dilutions. 50 μl of Vn in the same buffer then was added to each well.
The plates were incubated for 3 hr at RT, then washed 3× with 1X TBS, 0.05% TWEEN 20 (polyoxyethylenesorbitan monolaurate). 100 μl of 8E6 (Telios) diluted to 1:6000 in 1X TBS, 0.05% TWEEN 20 (polyoxyethylenesorbitan monolaurate) was added to the wells and the plates were incubated for 1 hr at RT. Plates were washed 3× with 1X TBS, 0.05% TWEEN 20 (polyoxyethylenesorbitan monolaurate). Affinity purified goat anti-mouse IgG conjugated to horseradish peroxidase (100μl/well; BioRad; Hercules Calif.) was added to each well and incubated for 1 hr at RT. Plates were washed 3× with 1X TBS, 0.05% TWEEN 20 (polyoxyethylenesorbitan monolaurate). 100 μl/well of substrate mixture (10 mg O-phenylenediamine in 25 ml 0.1M citrate-phosphate buffer, pH 5.0, 6 μl 30% H2 O2) was added to the plates and allowed to develop. The development process was stopped by adding 50 μl to 4N H2 SO4 to each well. The plates were read at 490 nm and the data analyzed by four parameter fit.
On the technique in general: ELISA stands for enzyme-linked immunosorbent assay.

A further data set relates to αv β3 integrin receptor. As to conditions: Choi et al. 1994; cited from earlier work.
A short description of data set [3]: Half-life of peptide in serum. It is filed as in vivo. As to conditions: in words. The source says:
Increased stability of a disulfide bonded peptide of the invention also can be conferred by incorporating a hydrophobic amino acid residue such as phenylalanine at position X1 or X8 or both X1 and X8 in an RGDNTic (SEQ ID NO: 31) or RGDDV (SEQ ID NO: 1) pharmacophore as disclosed herein. The presence of such a residue can stabilize the disulfide bond against enzymatic degradation (see Bauer et al., Life Sciences 31:1133-1140 (1982)). […] In addition, the half-life of a peptide in a subject can be determined, for example, by high performance liquid chromatography (HPLC) of serum samples collected from the subject at various times following administration of the peptide. One skilled in the art would know how to select appropriate elution buffers for HPLC based on the physico-chemical properties of a particular peptide.

A further data set relates to osteoclasts. The settings on record: in vitro; Sato et al., EP 437,367; cited from earlier work.
For data set [4] the following is noted: in vivo; Fisher et al.; cited from earlier work.

For `CC(=O)N[C@H]1CSSC[C@@H](C(N)=O)NC(=O)[C@@H]2Cc3ccccc3CN2C(=O)[C@H](CO)NC(=O)[C@H](CC(=O)O)NC(=O)CNC(=O)[C@H](CCCNC(=N)N)NC1=O` [compound 812, Ac-CRGDS(Tic)C--NH2] (Ac-CRGDS[Tic]C-NH2; disulfide 1-7), the “potency (active at a relatively low concentration)” value in data set [1] is on record as “particularly potent”. Also, the “activity (FIG. 2)” value in data set [1] (minimally essential elements) is listed as “demonstrate activity”.

For the compound `CC(C)[C@@H]1NC(=O)[C@H](CC(=O)O)NC(=O)[C@H](CC(=O)O)NC(=O)CNC(=O)[C@H](CCCNC(=N)N)NC(=O)CCSSC[C@@H](C(N)=O)NC1=O` [compound 191] ([Mpa]RGDDVC-NH2; disulfide 1-7), in data set [2], the “PTH-induced rise in serum ionized calcium” value is on record as “decreased the PTH-induced rise in serum ionized calcium in a dose responsive manner”.

In the case of `CC(=O)N[C@H]1CSSC(C)(C)[C@@H](C(N)=O)NC(=O)[C@@H]2CCCN2C(=O)[C@H](CC(N)=O)NC(=O)[C@H](CC(=O)O)NC(=O)CNC(=O)[C@H](CCCNC(=N)N)NC1=O` [compound 228] (Ac-CRGDNP[Pen]-NH2; disulfide 1-7), the “receptor selectivity for αv β3 compared to αv β5 and α5 β1” value (“receptor selectivity for αv β3” below) at αv β3 receptor is “particularly receptor selective”.

For G(Pen)GRGDSPCA, the “inhibition of neointimal hyperplasia” value in the data set on αv β3 integrin receptor is reported as “can inhibit neointimal hyperplasia”.

For the compound `CC[C@H](C)[C@@H]1NC(=O)[C@@H](NC(=O)CN)C(C)(C)SSC[C@@H](C(=O)N[C@@H](C)C(=O)O)NC(=O)[C@H](CC(C)C)NC(=O)[C@H](CC(=O)O)NC(=O)[C@H](CC(=O)O)NC(=O)CNC(=O)[C@H](CCCNC(=N)N)NC(=O)[C@H](C)NC1=O` [compound 448] (H-G[Pen]IARGDDLCA-OH; disulfide 2-10), the “receptor selectivity for αv β3” value at αv β3 receptor is “particularly receptor selective”.

As to `CC(=O)N[C@@H]1C(=O)N[C@@H](Cc2ccccc2)C(=O)N[C@@H](C)C(=O)N[C@@H](CCCNC(=N)N)C(=O)NCC(=O)N[C@@H](CC(=O)O)C(=O)N[C@@H](CC(N)=O)C(=O)N2CCC[C@H]2C(=O)N[C@H](C(N)=O)CSSC1(C)C` [peptide 214] (Ac-[Pen]FARGDNPC-NH2; disulfide 1-9), the “potency (active at a relatively low concentration)” value in data set [1] is listed as “particularly potent”.

Regarding `CC(=O)N[C@@H](Cc1ccccc1)C(=O)N[C@H]1CSSC[C@@H](C(N)=O)NC(=O)[C@H](Cc2ccccc2)NC(=O)[C@H]([C@@H](C)O)NC(=O)[C@H](CC(=O)O)NC(=O)CNC(=O)[C@H](CCCNC(=N)N)NC1=O` [peptide 220] (Ac-FCRGDTFC-NH2; disulfide 2-8), the half-life in serum result in data set [3] is on record as “relatively long half-life in serum”.

As for `CC(C)[C@@H]1NC(=O)[C@H](CC(=O)O)NC(=O)[C@H](CC(=O)O)NC(=O)CNC(=O)[C@H](CCCNC(=N)N)NC(=O)[C@H](C)NC(=O)[C@H](C)NC(=O)[C@@H](NC(=O)CN)C(C)(C)SSC[C@@H](C(=O)N[C@@H](C)C(N)=O)NC1=O` [compound 814] (H-G[Pen]AARGDDVCA-NH2; disulfide 2-10), on αv β3 receptor, the “receptor selectivity for αv β3” value is “receptor selective for αv β3; also recorded: particularly receptor selective”.

Take Echistatin: the “inhibition of bone resorption” value with osteoclasts is “inhibits bone resorption in vitro”; in data set [4], “inhibits bone resorption”.
